The text below walks through data of article PMC9828044 (RSC Advances, 2023).

The target of assay [1] is T1, MAO B (Rattus norvegicus, UniProt P19643).
T1 sequence (P19643 1-520): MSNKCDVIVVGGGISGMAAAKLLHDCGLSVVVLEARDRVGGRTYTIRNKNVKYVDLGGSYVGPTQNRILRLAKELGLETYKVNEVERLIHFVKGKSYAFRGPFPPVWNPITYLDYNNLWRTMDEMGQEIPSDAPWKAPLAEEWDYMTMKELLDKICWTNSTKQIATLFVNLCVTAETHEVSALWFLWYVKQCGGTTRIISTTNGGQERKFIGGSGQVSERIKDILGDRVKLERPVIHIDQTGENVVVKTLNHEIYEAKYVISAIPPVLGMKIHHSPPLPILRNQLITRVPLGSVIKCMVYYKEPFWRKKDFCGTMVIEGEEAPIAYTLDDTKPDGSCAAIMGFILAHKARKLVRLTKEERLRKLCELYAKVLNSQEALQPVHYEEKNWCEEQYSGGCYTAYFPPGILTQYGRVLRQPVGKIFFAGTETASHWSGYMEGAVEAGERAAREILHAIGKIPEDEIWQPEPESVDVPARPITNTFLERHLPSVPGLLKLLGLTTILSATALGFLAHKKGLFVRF
The assay can be described thus: Monoamine oxidase B. The note with it: for inhibition at 100 µM: read-out: MAO B % inhibition; for selective inhibition toward MAO B: MAO B versus MAO A, in words. It is filed as biochemical.

In assay [2] the target is T2, MAO A (Rattus norvegicus, UniProt P21396).
T2 sequence (P21396 1-526): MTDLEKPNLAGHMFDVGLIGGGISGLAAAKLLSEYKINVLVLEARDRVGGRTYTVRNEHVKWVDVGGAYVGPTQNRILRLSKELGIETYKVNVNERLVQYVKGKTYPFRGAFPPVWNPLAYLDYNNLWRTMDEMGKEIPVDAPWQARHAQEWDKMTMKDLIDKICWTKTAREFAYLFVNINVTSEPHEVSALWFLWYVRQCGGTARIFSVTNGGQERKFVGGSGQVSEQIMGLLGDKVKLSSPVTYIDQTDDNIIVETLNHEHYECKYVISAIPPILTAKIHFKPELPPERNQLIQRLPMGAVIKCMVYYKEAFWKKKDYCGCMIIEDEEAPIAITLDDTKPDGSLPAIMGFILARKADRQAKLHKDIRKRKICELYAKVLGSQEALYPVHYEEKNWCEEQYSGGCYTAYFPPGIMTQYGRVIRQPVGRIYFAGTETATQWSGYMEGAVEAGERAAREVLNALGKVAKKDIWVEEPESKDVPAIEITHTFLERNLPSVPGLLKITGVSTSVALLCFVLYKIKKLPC
In words: Monoamine oxidase A. It is filed as biochemical. The conditions noted are these: for inhibition at 100 µM: read-out: MAO A % inhibition; for dual inhibition on MAO A and MAO B: both isoforms; for dual inhibition on MAO A and MAO B / selective inhibition toward MAO A: in words; for selective inhibition toward MAO A: MAO A versus MAO B.

As to `CN1c2ccccc2C(=NN=Cc2cc3ccccc3nc2Cl)CS1(=O)=O` [7a, 4-(((2-Chloroquinolin-3-yl)methylene)hydrazono)-1-methyl-3,4-dihydro-1H-benzo[c][1,2]thiazine 2,2-dioxide], the inhibition at 100 µM stood at 43.6% in assay [1] and 38.8% in assay [2]. Take `Cc1ccc2nc(Cl)c(C=NN=C3CS(=O)(=O)N(C)c4ccccc43)cc2c1` [7b, 4-(((2-Chloro-6-methylquinolin-3-yl)methylene)hydrazono)-1-methyl-3,4-dihydro-1H-benzo[c][1,2]thiazine 2,2-dioxide]: in assay [2], the “dual inhibition on MAO A and MAO B” value is reported as “dual inhibition on MAO A as well as MAO B”. Take `COc1ccc2nc(Cl)c(C=NN=C3CS(=O)(=O)N(C)c4ccccc43)cc2c1` [7c, 4-(((2-Chloro-6-methoxyquinolin-3-yl)methylene)hydrazono)-1-methyl-3,4-dihydro-1H-benzo[c][1,2]thiazine 2,2-dioxide]: the inhibition at 100 µM in assay [1] is 35.8%. Also, the “selective inhibition toward MAO A” value in assay [2] is “significant selective inhibition toward MAO A”. On to `Cc1ccc2cc(C=NN=C3CS(=O)(=O)N(C)c4ccccc43)c(Cl)nc2c1` [7d, 4-(((2-Chloro-7-methylquinolin-3-yl)methylene)hydrazono)-1-methyl-3,4-dihydro-1H-benzo[c][1,2]thiazine 2,2-dioxide], for which the “dual inhibition on MAO A and MAO B” value in assay [2] is listed as “dual inhibition on MAO A as well as MAO B”.

`COc1ccc2cc(C=NN=C3CS(=O)(=O)N(C)c4ccccc43)c(Cl)nc2c1` [7e, 4-(((2-Chloro-7-methoxyquinolin-3-yl)methylene)hydrazono)-1-methyl-3,4-dihydro-1H-benzo[c][1,2]thiazine 2,2-dioxide]: in assay [2], the “dual inhibition on MAO A and MAO B” value is “dual inhibition on MAO A as well as MAO B”.

As for `CN1c2ccccc2C(=NN=Cc2cc3ccc(Cl)cc3nc2Cl)CS1(=O)=O` [7f, 4-(((2,7-Dichloroquinolin-3-yl)methylene)hydrazono)-1-methyl-3,4-dihydro-1H-benzo[c][1,2]thiazine 2,2-dioxide], in assay [2], the “dual inhibition on MAO A and MAO B” value is “dual inhibition on MAO A as well as MAO B”; the inhibition at 100 µM worked out at 2.03 ± 0.91%.

`CC(=NN=C1CS(=O)(=O)N(C)c2ccccc21)c1cccs1` [9a, 1-Methyl-4-((1-(thiophen-2-yl)ethylidene)hydrazono)-3,4-dihydro-1H-benzo[c][1,2]thiazine 2,2-dioxide]: the inhibition at 100 µM in assay [2] was found to be 2.09 ± 0.89%. As to `CC(=NN=C1CS(=O)(=O)N(C)c2ccccc21)c1sccc1C` [9b, 1-Methyl-4-((1-(3-methylthiophen-2-yl)ethylidene)hydrazono)-3,4-dihydro-1H-benzo[c][1,2]thiazine 2,2-dioxide], the inhibition at 100 µM in assay [2] stood at 38.5%. Still for that read-out and setting: then `CC(=NN=C1CS(=O)(=O)N(C)c2ccccc21)c1cc(C)cs1` [9c, 1-Methyl-4-((1-(4-methylthiophen-2-yl)ethylidene)hydrazono)-3,4-dihydro-1H-benzo[c][1,2]thiazine 2,2-dioxide], with 39.1%. Consider `CC(=NN=C1CS(=O)(=O)N(C)c2ccccc21)c1ccc(C)s1` [9d, 1-Methyl-4-((1-(5-methylthiophen-2-yl)ethylidene)hydrazono)-3,4-dihydro-1H-benzo[c][1,2]thiazine 2,2-dioxide], for which the inhibition at 100 µM in assay [1] was determined as 31.1%. For the same molecule, the “selective inhibition toward MAO A” value in assay [2] is “significant selective inhibition toward MAO A”. Take `CC(=NN=C1CS(=O)(=O)N(C)c2ccccc21)c1sccc1Cl` [9e, 4-((1-(3-Chlorothiophen-2-yl)ethylidene)hydrazono)-1-methyl-3,4-dihydro-1H-benzo[c][1,2]thiazine 2,2-dioxide]: the inhibition at 100 µM in assay [1] is 41.9%. `CC(=NN=C1CS(=O)(=O)N(C)c2ccccc21)c1sccc1Br` [9f, 4-((1-(3-Bromothiophen-2-yl)ethylidene)hydrazono)-1-methyl-3,4-dihydro-1H-benzo[c][1,2]thiazine 2,2-dioxide]: the “selective inhibition toward MAO B” value in assay [1] is “selective inhibition toward the MAO B enzyme”. Besides, the inhibition at 100 µM in assay [2] is 41.6%.

`CC(=NN=C1CS(=O)(=O)N(C)c2ccccc21)c1ccc(Cl)s1` [9g, 4-((1-(5-Chlorothiophen-2-yl)ethylidene)hydrazono)-1-methyl-3,4-dihydro-1H-benzo[c][1,2]thiazine 2,2-dioxide]: the “dual inhibition on MAO A and MAO B” value in assay [2] is “dual inhibition on MAO A as well as MAO B”. As for `CC(=NN=C1CS(=O)(=O)N(C)c2ccccc21)c1ccc(Br)s1` [9h, 4-((1-(5-Bromothiophen-2-yl)ethylidene)hydrazono)-1-methyl-3,4-dihydro-1H-benzo[c][1,2]thiazine 2,2-dioxide], the “selective inhibition toward MAO B” value in assay [1] is reported as “selective inhibition toward the MAO B enzyme”. The inhibition at 100 µM in assay [2] was 28.4%. In the same order, the values of `CC(=NN=C1CS(=O)(=O)N(C)c2ccccc21)c1ccc([N+](=O)[O-])s1` [9i, 1-Methyl-4-((1-(5-nitrothiophen-2-yl)ethylidene)hydrazono)-3,4-dihydro-1H-benzo[c][1,2]thiazine 2,2-dioxide] are “selective inhibition toward the MAO B enzyme” and 39.8%.

In the case of `CC(=NN=C1CS(=O)(=O)N(C)c2ccccc21)c1cc(C)sc1C` [9j, 4-((1-(2,5-Dimethylthiophen-3-yl)ethylidene)hydrazono)-1-methyl-3,4-dihydro-1H-benzo[c][1,2]thiazine 2,2-dioxide], the “selective inhibition toward MAO B” value in assay [1] is “selective inhibition toward the MAO B enzyme”. In assay [2], the inhibition at 100 µM was determined as 26.3%.

For `CC(=NN=C1CS(=O)(=O)N(C)c2ccccc21)c1cc(Cl)sc1Cl` [9k, 4-((1-(2,5-Dichlorothiophen-3-yl)ethylidene)hydrazono)-1-methyl-3,4-dihydro-1H-benzo[c][1,2]thiazine 2,2-dioxide], the “dual inhibition on MAO A and MAO B” value in assay [2] is recorded as “dual inhibition on MAO A as well as MAO B”.
